From patent US20230202997A1, “CHROMANOL, QUINONE OR HYDROQUINONE COMPOUNDS FOR TREATMENT OF SEPSIS” (Sulfateq B.V., priority 2020, published 2023)

Tests used:
Conditions in all cases: 10 μM for 30 min, then LPS 24 hours
[1] = tested on: IL-6 mRNA expression; experiment: Inhibition of LPS-induced IL-6 mRNA expression in HUVEC; type: cell-based, Human
Protocol: (§1) Human Umbilical Cord Endothelial Cells (HUVEC, Lonza CC-2519) were maintained on 1% gelatin-coated culture flasks in RPMI1640 medium containing 20% fetal bovine serum, 2 mM Glutamine (Sigma-Aldrich), 1% Penicillin-Streptomycin solution (Sigma-Aldrich) and 50 μg/ml Bovine Pituitary Extract (Invitrogen). HUVEC were passaged by trypsinization when the cultures reach a confluency of 70%. For all experiments, HUVEC were seeded at 0.6·10^5 cells/cm^2 and allowed to adhere for 24 hours.
(§2) HUVEC and NRK52E cells were pre-incubated with SUL compounds (10 μM) for 30 min and subsequently exposed to LPS for 24 hours under standard culture conditions. Cells were lysed in triZOL reagens (Invitrogen) and total RNA isolated according to manufacturers' instruction. 1 μg total RNA per sample was reverse transcribed using the FirstAid Reverse Transcription Kit (ThermoFisher). Copy-DNA equivalents of 5 ng total RNA were amplified on a ViiA7 Real-time PCR system (ThermoFisher, Waltham, Mass.) using iTaq Universal SYBR Green Supermix (Bio-Rad, Hercules, Calif.) and primers specific for tumor necrosis factor alpha, interleukin 1 beta, interleukin-6 and beta actin as loading control. Amplification was performed for 40 cycles of 95° C. for 30 s, 60° C. for 1 min. Relative mRNA expression was calculated as 2^−(Cq^gene^−Cq^reference^) and normalized to unstimulated control cells (100% inhibition) and vehicle-treated and LPS exposed cells (0% inhibition). The following primers were used: […]

[2] = tested on: IL-1β mRNA expression; experiment: Inhibition of LPS-induced IL-1β mRNA expression in HUVEC; type: cell-based, Human
Protocol: as §1, §2

[3] = tested on: TNFα mRNA expression; experiment: Inhibition of LPS-induced TNFα mRNA expression in HUVEC; type: cell-based, Human
Protocol: as §1, §2

[4] = tested on: IL-1β mRNA expression; experiment: Inhibition of LPS-induced IL-1β mRNA expression in NRK52E; type: cell-based, Rat
Protocol: (§3) Rat kidney epithelial cells (ATCC #CRL-1571) were maintained in DMEM medium containing 10% fetal bovine serum, and 1% Penicillin-Streptomycin solution (Sigma-Aldrich). NRK52E cells were passaged by trypsinization when the cultures reached a confluency of 70%. For all experiments, NRK52E cells were seeded at 0.6·10^5 cells/cm^2 and allowed to adhere for 24 hours.
as §2

[5] = tested on: IL-6 mRNA expression; experiment: Inhibition of LPS-induced IL-6 mRNA expression in NRK52E; type: cell-based, Rat
Protocol: as §3, §2

[6] = tested on: TNFα mRNA expression; experiment: Inhibition of LPS-induced TNFα mRNA expression in NRK52E; type: cell-based, Rat
Protocol: as §3, §2

| SMILES | inhibition of LPS-induced mRNA expression of IL-6 [1] | inhibition of LPS-induced mRNA expression of IL-1β [2] | inhibition of LPS-induced mRNA expression of TNFα [3] | inhibition of LPS-induced mRNA expression of IL-1β [4] | inhibition of LPS-induced mRNA expression of IL-6 [5] | inhibition of LPS-induced mRNA expression of TNFα [6] |
| --- | --- | --- | --- | --- | --- | --- |
| COC(=O)CNC(=O)C1(C)CCc2c(C)c(O)c(C)c(C)c2O1 (stereo not drawn) [SUL-99, methyl [(6-hydroxy-2,5,7,8-tetramethyl-3,4-dihydro-2H-1-benzopyran-2-carbonyl)amino]acetate, reference compound] | 32.7 ± 8.1 % | 31.5 ± 4.5 % | 35.1 ± 6.2 % | – | – | – |
| Cc1c(C)c2c(c(C)c1O)CCC(C)(C(=O)Nc1ccccc1)O2 (stereo not drawn) [SUL-103, 6-hydroxy-2,5,7,8-tetramethyl-N-phenyl-3,4-dihydro-2H-1-benzopyran-2-carboxamide] | – | – | – | 59.2 ± 7.9 % | 63.3 ± 1.4 % | 67.8 ± 7.8 % |
| Cc1c(C)c2c(c(C)c1O)CCC(C)(C(=O)N[C@H](CO)c1ccccc1)O2 (stereo partly drawn) [SUL-129, 6-hydroxy-N-[(1S)-2-hydroxy-1-phenylethyl]-2,5,7,8-tetramethyl-3,4-dihydro-2H-1-benzopyran-2-carboxamide] | – | – | – | 75.9 ± 7.1 % | 69.2 ± 2.6 % | 75.6 ± 6.4 % |
| Cc1c(C)c(O)c(CC[C@@](C)(O)C(=O)N2CCN(CCO)CC2)c(C)c1O [SUL-138M2, 4-(2,5-dihydroxy-3,4,6-trimethylphenyl)-2-hydroxy-1-(4-(2-hydroxyethyl)piperazin-1-yl)-2-methylbutan-1-one] | 55.2 ± 8.5 % | 51.7 ± 8.0 % | 58.1 ± 3.1 % | – | – | – |
